Measurements: patent US20040038855A1 (priority 1999, published 2004)
Blank lines part the entries; values can stand above or below the molecule they belong to.

Experiments:
rat MCH1 receptor = target: T1, rat MCH1 receptor (Rattus norvegicus, UniProt P97639); test: Binding affinity (Ki) at the rat MCH1 receptor; details: Examples 142-153; read-out: Ki (nM) rMCH1
T1 construct: expressed in transfected cells

[1] = test system: micturition reflex, conscious male Sprague Dawley rats; test: Continuous Slow Transvesicular Infusion (CSTI) rat model; assay type: in vivo; design: key to Effect of MCH1 antagonist in the CSTI model: B = Produced an increase in bladder capacity in rats relative to baseline capacity; details: bladder capacity, intragastric
Description: The effects of compounds on the micturition reflex were assessed in the “distension-induced rhythmic contraction” (DIRC), as described in previous publications (e.g. Maggi et al, 1987; Morikawa et al, 1992), and Continuous Slow Transvesicular Infusion (CSTI) models in rats. Male Sprague Dawley rats weighing approximately 300 g were used for the study. Rats were anaesthetized with pentobarbitone sodium (50 mg/kg, i.p). Through a median abdominal incision, bladder was exposed and a polyethylene cannula (PE 50) was introduced into the bladder through a small cut on the dome of the bladder and the cannula was secured with a purse string suture. The other end of the cannula was exteriorized subcutaneously at the dorsal neck area. Similarly, another cannula (PE 50) was introduced into the stomach through a paramedian abdominal incision with the free end exteriorized subcutaneously to the neck region. The surgical wounds were closed with silk 4-0 suture and the animal was allowed to recover with appropriate post surgical care. On the following day, the animal was placed in a rat restrainer. The open end of the bladder cannula was connected to a pressure transducer as well as infusion pump through a three-way stopcock. The bladder voiding cycles were initiated by continuous infusion of normal saline at the rate of 100 ul/min. The repetitive voiding contractions were recorded on a Power Lab on-line data acquisition software. After recording the basal voiding pattern for an hour, the test drug or vehicle was administered directly into stomach through the intragastric catheter and the voiding cycles were monitored for 5 hours. Micturition pressure and frequency were calculated before and after the treatment (at every 30 min interval) for each animal. Bladder capacity was calculated from the micturition frequency, based on the constant infusion of 100 ul/min. The effect of the test drug was expressed as a percentage of basal, pre-drug bladder capacity. WAY 100635 was used as positive control for comparison.

[2] = test system: micturition reflex, anesthetized female Sprague Dawley rats; test: Distension-induced rhythmic contraction (DIRC) model; assay type: in vivo, rat; design: key: A = Produced a significant increase in contraction interval relative to pre-drug interval; details: contraction interval, i.v. or i.p.
Description: The effects of compounds on the micturition reflex were assessed in the “distension-induced rhythmic contraction” (DIRC), as described in previous publications (e.g. Maggi et al, 1987; Morikawa et al, 1992), and Continuous Slow Transvesicular Infusion (CSTI) models in rats.
Female Sprague Dawley rats weighing approximately 300 g were anesthetized with subcutaneous urethane (1.2 g/kg). The trachea was cannulated with PE240 tubing to provide a clear airway throughout the experiment. A midline abdominal incision was made and the left and right ureters were isolated. The ureters were ligated distally (to prevent escape of fluids from the bladder) and cannulated proximally with PE10 tubing. The incision was closed using 4-0 silk sutures, leaving the PE10 lines routed to the exterior for the elimination of urine. The bladder was canulated via the transurethral route using PE50 tubing inserted 2.5 cm beyond the urethral opening. This cannula was secured to the tail using tape and connected to a pressure transducer. To prevent leakage from the bladder, the cannula was tied tightly to the exterior urethral opening using 4-0 silk.
To initiate the micturition reflex, the bladder was first emptied by applying pressure to the lower abdomen, and then filled with normal saline in […] (maximum 2 ml) until spontaneous bladder contractions occurred (typically 20-40 mmHg at a rate of one contraction every 2 to 3 minutes. Once a regular rhythm was established, vehicle (saline) or Test Compounds were administered i.v. or i.p. to explore their effects on bladder activity. The 5-HT1A antagonist WAY-100635 was given as a positive control. Data were expressed as contraction interval (in seconds) before drug application (basal), or after the application of vehicle or test article.

[3] = target: T2, MCH1 receptor binding sites in the rat CNS (Rattus norvegicus, UniProt P97639); test: Receptor autoradiography with [3H]Compound 10 on rat brain and spinal cord sections; design: key to Density of MCH1 receptor binding sites: absent (−); weak (+); moderate (++); heavy (+++); intense (++++); details: for Density of MCH1 receptor binding sites: 0.1 nM [3H] Compound 10, 1 μM prazosin, 100 μM dopamine, rat CNS
T2 construct: from tissue; host or cells: coronal brain and spinal cord sections of male Sprague-Dawley rats
T2 sequence (P97639 whole entry): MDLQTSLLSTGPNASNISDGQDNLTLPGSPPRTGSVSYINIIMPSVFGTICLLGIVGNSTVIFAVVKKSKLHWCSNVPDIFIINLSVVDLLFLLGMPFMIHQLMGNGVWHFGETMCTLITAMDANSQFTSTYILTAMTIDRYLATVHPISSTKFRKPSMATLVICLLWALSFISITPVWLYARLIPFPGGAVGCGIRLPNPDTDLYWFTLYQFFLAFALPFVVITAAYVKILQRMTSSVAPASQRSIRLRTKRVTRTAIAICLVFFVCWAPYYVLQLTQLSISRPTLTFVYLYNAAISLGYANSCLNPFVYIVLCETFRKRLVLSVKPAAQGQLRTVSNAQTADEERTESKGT
Description: Male Sprague-Dawley rats (Charles Rivers, Rochester, N.Y.) were euthanized using CO2 and decapitated and their brains rapidly removed and frozen on crushed dry ice. Coronal sections were cut at 20 μm using a cryostat and thaw-mounted onto gelatin-coated slides then stored at −20° C. until use.
Dopamine, prazosin, and phenanthroline were obtained from Sigma (St. Louis, Mo.). Phenylmethylsulfonyl Fluoride (PMSF) was from Calbiochem (La Jolla, Calif.). See also Chemical Synthetic Methods described hereinafter.
Tissue sections were allowed to equilibrate to room temperature for one hour. Sections were incubated at 25° C. for 1.5 hours in 50 mM Tris-HCl buffer, pH 7.4, containing 10 mM MgCl2, 0.16 mM PMSF, 0.3 mM phenanthroline, 0.2% bovine serum albumin (Boehringer Mannheim, Indianapolis, Ind.), 100 μM dopamine, 1 μM prazosin, […] Following incubation the sections were washed twice for 5 minutes each in 4° C. 50 mM Tris-buffer, pH 7.4, then rapidly dipped in ice-cold distilled water to remove the salts. Tissues were dried under a stream of cold air and apposed together with ^3H-plastic standard scales, to Hyperfilm-^3H (Amersham, Piscataway, N.J.) for 6 weeks. Films were developed using a Kodak developer-D19 and Rapid fixer (Kodak, Rochester, N.Y.). […]

human MCH1 receptor = human MCH1 receptor (Homo sapiens, UniProt Q99705); test: Saturation and competition binding of [3H]Compound 10, membranes of Cos-7 cells transfected with MCH1; design: expressed in transfected cells; host or cells: COS-7
human MCH1 receptor, sequence (Q99705 whole entry): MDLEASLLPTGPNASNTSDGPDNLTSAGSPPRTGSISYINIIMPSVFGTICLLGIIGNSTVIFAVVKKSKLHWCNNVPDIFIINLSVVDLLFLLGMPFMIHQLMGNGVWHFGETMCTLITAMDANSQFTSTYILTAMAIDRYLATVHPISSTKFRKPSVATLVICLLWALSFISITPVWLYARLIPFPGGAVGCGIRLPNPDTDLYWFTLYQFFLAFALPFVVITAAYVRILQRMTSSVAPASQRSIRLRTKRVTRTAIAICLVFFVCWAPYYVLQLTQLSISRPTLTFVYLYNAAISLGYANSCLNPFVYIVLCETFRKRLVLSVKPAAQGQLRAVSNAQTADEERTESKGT
Description: Saturation equilibrium binding of [3H]Compound 10 to the human MCH1 receptor. Membrane preparations from Cos-7 cells transfected with MCH1 were incubated with varying concentrations of [3H]Compound 10 (SA: 56 Ci/mmol) at room temperature for 90 min, in a volume of 0.250 ml. The reaction was terminated by filtration in GF/C filters, and the radioactivity determined by scintillation counting. Non-specific binding was defined as the amount of radioactivity retained in the filter after incubating the reaction mixture in the presence of unlabeled Compound 10 ([…]).
Competition binding of [3H]Compound 10 to the human MCH1 receptor. […] The reaction was terminated by filtration in GF/C filters and the radioactivity bound to the membrane was determined by scintillation counting.
[3H]Compound 10 was tested for its ability to bind to membrane preparations of cells expressing the human MCH1 receptor.

T1 sequence (P97639 whole entry): as the sequence (P97639 whole entry) above

- Ki (rat MCH1 receptor): 7.1 nM
SMILES: Cc1onc(-c2c(Cl)cccc2Cl)c1C(=O)NCCCCCN1CCC(c2cccc(NC(=O)C(C)C)c2)CC1 [Example 149]
- Effect of MCH1 antagonist in the CSTI model [1]: B
- Effect of MCH1 antagonist in the DIRC model [2]: A

- Ki (rat MCH1 receptor): 3.8 nM
SMILES: CC(=O)c1cccc(O[C@H](CCN2CCC(c3cccc(NC(=O)C(C)C)c3)CC2)c2ccccc2)c1 [Example 151]
- Effect of MCH1 antagonist in the CSTI model [1]: B
- Effect of MCH1 antagonist in the DIRC model [2]: A

- specific binding ([3]; 0.1 nM with 100 μM dopamine and 1 μM prazosin, nonspecific: 10 μM unlabeled Compound 10): approximately 95%
- Density of MCH1 receptor binding sites ([3]; Amygdala: Anterior cortical n.): +
- Density of MCH1 receptor binding sites ([3]; Amygdala: Basolateral amygdaloid n.): +
- Density of MCH1 receptor binding sites ([3]; Amygdala: Bed n. Of the stria terminalis): ++
- Density of MCH1 receptor binding sites ([3]; Amygdala: Central amygdaloid n.): +
- Density of MCH1 receptor binding sites ([3]; Basal Ganglia: Accumbens n., core): +++
- Density of MCH1 receptor binding sites ([3]; Basal Ganglia: Accumbens n., shell): ++++
- Density of MCH1 receptor binding sites ([3]; Basal Ganglia: Caudate-putamen): +++
- Density of MCH1 receptor binding sites ([3]; Basal Ganglia: Globus pallidus): −
- Density of MCH1 receptor binding sites ([3]; Basal Ganglia: Medial septal n.): +
- Density of MCH1 receptor binding sites ([3]; Basal Ganglia: Septohippocampal n.): +
- Density of MCH1 receptor binding sites ([3]; Cerebellum): −
- Density of MCH1 receptor binding sites ([3]; Diencephalon, Thalamus: Anterodorsal n.): +
- Density of MCH1 receptor binding sites ([3]; Diencephalon, Thalamus: Centromedial n.): +
- Density of MCH1 receptor binding sites ([3]; Diencephalon, Thalamus: Mediodorsal n.): −
- Density of MCH1 receptor binding sites ([3]; Diencephalon, Thalamus: Paraventricular n.): +
- Density of MCH1 receptor binding sites ([3]; Diencephalon, Thalamus: Reticular n.): +
- Density of MCH1 receptor binding sites ([3]; Diencephalon: Hypothalamus): +
- Density of MCH1 receptor binding sites ([3]; Hippocampal formation: CA1): ++
- Density of MCH1 receptor binding sites ([3]; Hippocampal formation: CA2): ++
- Density of MCH1 receptor binding sites ([3]; Hippocampal formation: CA3): ++
- Density of MCH1 receptor binding sites ([3]; Hippocampal formation: Pre/parasubiculum): ++
- Density of MCH1 receptor binding sites ([3]; Locus coeruleus (listed under Mesencephalon)): ++
- Density of MCH1 receptor binding sites ([3]; Mesencephalon: Caudal linear raphe n.): +
- Density of MCH1 receptor binding sites ([3]; Mesencephalon: Interpeduncular n.): ++
- Density of MCH1 receptor binding sites ([3]; Mesencephalon: Periaqueductal gray): +
- Density of MCH1 receptor binding sites ([3]; Mesencephalon: Pontine n.): +
- Density of MCH1 receptor binding sites ([3]; Mesencephalon: Substantia nigra): +
- Density of MCH1 receptor binding sites ([3]; Mesencephalon: Superior colliculus): ++
- Density of MCH1 receptor binding sites ([3]; Olfactory System: Anterior olfactory n.): +
- Density of MCH1 receptor binding sites ([3]; Olfactory System: Islands of Calleja, major): +++
- Density of MCH1 receptor binding sites ([3]; Olfactory System: Olfactory tubercle): +++
- Density of MCH1 receptor binding sites ([3]; Spinal cord: Dorsal horn): +
- Density of MCH1 receptor binding sites ([3]; Spinal cord: Ventral horn): +
- Density of MCH1 receptor binding sites ([3]; Telencephalon: Claustrum): ++
- Density of MCH1 receptor binding sites ([3]; Telencephalon: Dorsal endopiriform n.): +
- maximum number of binding sites (Bmax) (human MCH1 receptor): 870 fmol/mg protein
SMILES: [3H]C1CN(CCCNC(=O)N2C(=O)NC(COC)=C(C(=O)OC)[C@@H]2c2ccc(F)c(F)c2)CCC1([3H])c1cccc(NC(C)=O)c1 (stereo partly drawn) [[3H]Compound 10, TRITIATED METHYL (4S)-3-{[(3-{4-[3-(ACETYLAMINO)PHENYL]-1-PIPERIDINYL}PROPYL)AMINO]CARBONYL}-4-(3,4-DIFLUOROPHENYL)-6-(METHOXYMETHYL)-2-OXO-1,2,3,4-TETRAHYDRO-5-PYRIMIDINECARBOXYLATE]
